This is an account of results in US20260233024A1, “IRIDIUM COMPLEX, PHOTOSENSITIZER, AND COMPOSITION FOR PHOTODYNAMIC THERAPY” (UNIST(ULSAN NATIONAL INSTITUTE OF SCIENCE AND TECHNOLOGY), priority 2022, published 2026).

In one data set the test system is MKN45. In words: MTT cell viability after iridium complex treatment, with or without light (photodynamic cancer cell killing). It is filed as cell-based. The method, then:
(§1) After seeding 1.5×10^4 cells in a 96-well plate, the cells were cultured overnight at 37° C. under 5% carbon dioxide conditions. Afterwards, the cells were treated with the iridium complex and cultured for 2 hours, after which the medium was replaced with fresh medium. After irradiated for 30 seconds with a 1 sun simulator (100 mW/cm2, PEG-L01, Peccell), cells were cultured for an additional 24 hours in a humidified incubator containing 5% carbon dioxide at 37° C. Cell viability was measured using the MTT (tetrazolium salt (3-(4,5-dimethylthiazol-2-yl)-2,5-diphenyltetrazolium bromide)) assay. MTT reagent was added to each well and cultured for 4 hours, and then the formazan crystals produced in the surviving cells were dissolved in DMSO, followed by measurement of the absorbance at 570 nm.
(§2) When the same light (1 sun, 3 J/cm^2) was irradiated to cancer cells administered with the HBrb, B2, and TIr3 iridium complexes as respective photosensitizers, the IC50 values for the respective photo sensitizers were first calculated, and the results are shown in Table 2 below.

Another data set has as its system HeLa. The data set is described as above. The format is cell-based. The settings on record: for IC50: HeLa. On the procedure: as §1, §2
(§3) Data indicating the inherent toxicity may be determined by cell viability under conditions without light application (hv−). The experimental results in FIGS. 6A-6F show the cell viability for each cell under conditions where no light was given, where M indicates the cell line MDA-MB-231, A indicates the cell line A549, H indicates the cell line HeLa, C indicates the cell line Caco-2, and P indicates the cell line PANC-1, respectively. FIGS. 6A, 6B, and 6C represent the cell viability when each substance was administered to each cell line for 2 hours, replaced with new media, and then cultured for an additional 24 hours. FIG. 6D is a graph of cell viability when TIr3 and B2 were administered at different concentrations, and at the concentration of a combination of the two (TIr3+B2), to PANC-1, pancreatic cancer cells. […] FIGS. 6E and 6F show the results of identifying the change in the cell viability in the MDA-MB-231 breast cancer cell line under conditions with TIr3 only and the TIr3+B2 combination depending on the presence of light irradiation.

The test system of a further data set is Caco-2. Described as above. It is filed as cell-based. The method, then:
as §1, §2, §3

For a further data set, the system named is MDA-MB-231. The data set is described as above. It is filed as cell-based. On the procedure: as §1, §2, §3
The next data set deals with A549. Described as above. It is filed as cell-based. On the procedure: as §1, §2, §3
A further data set relates to PANC-1. The description is as above. It is filed as cell-based. The note with it: for cell viability (hv−): FIG. 6D, especially 16 and 32 μM. The method, then: as §1, §2, §3
Data set [1] can be described thus: Dynamic light scattering of Kolliphor HS15 micelles. The format is physicochemical. The note with it: 1 mg/mL in distilled water using 5% Kolliphor HS15. The method, then: FIGS. 7A-7E illustrates schematic diagrams of micellized synergistic combination (SY) of TIr3 and B2 using Kolliphor HS 15 surfactant (FIG. 7A). As a result, when TIr3, B2, and 0.5 mg/ml TIr3+0.5 mg/ml B2 (SY) materials are dissolved in distilled water at a concentration of 1 mg/mL using 5% Kolliphor HS15, it was found via dynamic light scattering (DLS) that nanoparticles with a size of approximately 10 nm were formed (FIG. 7B). In addition, the size of the SY combination was reidentified through transmission electron microscopy (TEM) (FIG. 7C). […] After four administrations of the drug, the results of hepatotoxicity (alanine aminotransferase, ALT) on the 17th day are shown in FIG. 7E.

The mark [2] stands for this setting: light 1 sun, 3 J/cm^2, read-out: IC50 (hv+).
Setting [3] is: no light, read-out: IC50 (hv−), IC50, dark.
[4] abbreviates: light 1 sun, 3 J/cm^2 (100 mW/cm2, 30 s), 2 h treatment, 24 h culture, read-out: IC50 (hv+).

Like-named read-outs stand apart in the source and are kept apart here.

Turning to `Cc1cc(-c2sc3ccccc3[c]2[Ir]([O]C(=O)c2ncccc2OCCCN2CCOCC2)[c]2c(-c3cc(C)c4ccccc4n3)sc3ccccc23)nc2ccccc12` [Example B2], the IC50 (commonly the concentration that inhibits the measured activity by half) with MKN45 (setting [2]) was 0.86 ± 0.03 µM; with MKN45 (setting [3]) it was more than 32 µM; in the data set on HeLa (setting [4]), 2.4 ± 0.08 µM; with HeLa (setting [3]), more than 32 µM; with Caco-2 (setting [2]) it was 0.68 ± 0.01 µM; with Caco-2 (setting [3]), more than 32 µM. Also, the 50% inhibitory concentration (IC50) in the data set on MDA-MB-231 (setting [2]) was 0.89 ± 0.1 µM; in the data set on MDA-MB-231 (setting [3]), more than 32 µM; in the data set with A549 (setting [4]), 3.8 ± 1.3 µM; in the data set on A549 (setting [3]), more than 32 µM; with PANC-1 (setting [4]), 11.7 ± 2.02 µM; in the data set on PANC-1 (setting [3]) it was more than 32 µM. Further, the “inherent toxicity of photosensitizer” value in the data set with HeLa (up to 32 μM, no light) was “non-toxic”. The “cell viability (hv−)” value with PANC-1 (no light) is “excellent biocompatibility”. In data set [1], the “nanoparticle size (DLS)” value is on record as “approximately 10 nm”.

Consider `O=C([O][Ir]([c]1c(-c2cc(C(F)(F)F)c3ccccc3n2)sc2ccccc12)[c]1c(-c2cc(C(F)(F)F)c3ccccc3n2)sc2ccccc12)c1ncccc1O` [FIrp], for which the IC50 in the data set on HeLa (setting [4]), with A549 (setting [4]) and in the data set on PANC-1 (setting [4]) was more than 32 µM in each case.

Take `[Cl-].c1ccc(-c2ccc3ccccc3n2)[c]([Ir+][c]2ccccc2-c2ccc3ccccc3n2)c1.c1ccc(-c2ccccn2)nc1` [TIr3]: the IC50 stood at 0.55 ± 0.06 µM in the data set on MKN45 (setting [2]); 16.3 ± 0.17 µM with MKN45 (setting [3]); 1.53 ± 0.07 µM with HeLa (setting [4]); 8.77 ± 0.73 µM in the data set with HeLa (setting [3]); 0.89 ± 0.09 µM with Caco-2 (setting [2]); 7.88 ± 0.13 µM in the data set with Caco-2 (setting [3]). Also, the IC50 with MDA-MB-231 (setting [2]) is 0.89 ± 0.02 µM; in the data set with MDA-MB-231 (setting [3]) it was 7.51 ± 0.84 µM; in the data set on A549 (setting [4]), 3.12 ± 0.2 µM; with A549 (setting [3]), 19.8 ± 1.99 µM; in the data set with PANC-1 (setting [4]), 3.86 ± 0.18 µM; in the data set with PANC-1 (setting [3]) it was 10.7 ± 0.39 µM. Besides, the “cell viability (hv−)” value in the data set on PANC-1 (no light) is recorded as “low cell viability”. The “nanoparticle size (DLS)” value in data set [1] is listed as “approximately 10 nm”.

Consider `CC(=O)C=C(C)[O][Ir]([c]1c(-c2cc(C(F)(F)F)c3ccccc3n2)sc2ccccc12)[c]1c(-c2cc(C(F)(F)F)c3ccccc3n2)sc2ccccc12` [FIra], for which the IC50 in the data set on HeLa (setting [4]), in the data set with A549 (setting [4]) and in the data set on PANC-1 (setting [4]) was more than 32 µM each time.

For the molecule `CC(=O)C=C(C)[O][Ir]([c]1c(-c2cc(C)c3ccccc3n2)sc2ccccc12)[c]1c(-c2cc(C)c3ccccc3n2)sc2ccccc12` [HIra], the IC50 with HeLa (setting [4]), in the data set on A549 (setting [4]) and in the data set on PANC-1 (setting [4]) was more than 32 µM throughout.
